Legend:
[1] = test system: auricle of a Balb/c mouse; experiment: In vivo photosensitivity test (ketoprofen-induced ear thickness increase after UVA); settings: 20 μL on auricle, 40 J/cm^2 UVA, 24 hours
Description: The following experiment was conducted with reference to the method of Gerberick et al. (Food Chem. Toxicol., 27, 813-819(1989)) with some modifications. First, ethanol was used to prepare a mixed solution containing the test substances shown in Tables 4 and 5 {tert-butylhydroxyanisole (BHA), di-tert-butylhydroxytoluene […], propyl gallate} and 2% ketoprofen. As a control a 2% ketoprofen solution was prepared using ethanol. Next, 20 μL of each prepared solution (N=8) was applied onto the auricle of a Balb/c mouse (female, 9-11 weeks old), prior to irradiation with 40 J/cm^2 UVA. When 24 hours had passed after UVA irradiation, the ear thickness of the mouse was measured and the increase with respect to the initial ear thickness was calculated. […] The abbreviation “PG” in the tables stands for “propyl gallate”.

[2] = test system: IL-1α production in HPV16 immobilized human adult keratinocytes (KERTr); experiment: IL-1α production in ketoprofen-treated, UVA-irradiated keratinocytes (ELISA); type: cell-based; settings: 75 μM ketoprofen, 6-8 J/cm^2 UVA, 24 hours after irradiation
Description: After adding a mixed solution of 75 μM ketoprofen and different concentrations of propyl gallate to a culturing medium (EpiLife™ Serum Free Medium E0151) (Cascade Biologics, Inc.) containing HPV16 immobilized human adult keratinocytes (KERTr) KUK001 (ATCC Co., Rockville, Md.), the mixture was incubated for 2 hours at […] in 5% carbon dioxide/95% air, and then irradiated with 6-8 J/cm^2 UVA. When 24 hours had passed after UVA irradiation, the IL-1α concentration of the culture supernatant was evaluated with an ELISA kit (R&D Systems, Inc.). As a control, there was used the above-mentioned culturing medium to which a solution of 75 μM ketoprofen alone was added, which was incubated for 2 hours at 37° C. in 5% carbon dioxide/95% air, and which was not irradiated with UVA.
An experiment was conducted in the same manner as Example 6 using di-tert-butylhydroxytoluene (BHT) instead of propyl gallate.

[3] = test system: heparin-added rabbit venous blood (whole blood); experiment: In vitro phototoxicity test (ketoprofen-associated photohemolysis); type: cell-based; settings: Oryctolagus cuniculus, light or radiation study, with ketoprofen, 7.5 J/cm^2 UVA
Description: The following experiment was conducted according to “Guidelines for basic biological tests of medical materials and devices”, Part VII “Hemolysis Test”. First, each of the test substances listed in Table I (Example 1), Table 2 (Example 2) and Table 3 (Example 3) {tert-butylhydroxyanisole (BHA), di-tert-butylhydroxytoluene (BHT), thymol, propyl gallate} and ketoprofen were dissolved in N,N-dimethylformamide (DMF) to 20-fold compared to the concentration shown in the tables (1000 μg/mL of ketoprofen). Also, after further diluting these solutions 5-fold in phosphate buffered saline (PBS), equal amounts of each test substance solution and the ketoprofen solution were combined. As a control, ketoprofen alone was dissolved in DMF to […], and diluted 10-fold with PBS to prepare a solution. These solutions were dispensed in 1 mL portions into a 24-well multiwell plate, and then 1 mL of PBS containing 40 μL of heparin-added rabbit venous blood (whole blood) per 5 mL was added to each to prepare reaction solutions.
An ultraviolet irradiating apparatus (UVP Lamp Fixture, UVP) equipped with two ultraviolet lamps (FL15BLB, Sankyo Denki) was used to irradiate the reaction solutions with 7.5 J/cm^2 UVA (ultraviolet rays of wavelength 320-400 nm) in an incubator set to 37° C., with the cover removed from the plate containing the reaction solutions (UVA is associated with drug-induced photosensitivity). During the ultraviolet irradiation, a 3 mm-thick glass plate was placed between the light source and the reaction solutions to cut ultraviolet rays of 320 nm wavelength and shorter. The incubation time was 60 minutes, including the irradiation time. After completion of the reaction, the solutions were centrifuged, the obtained 100 μL of supernatant (N=3) was transferred to a 96-well assay plate and the absorbance at 540 nm (Abs540) was measured as an index of hemolysis. The effects of each of the test substances in Tables 1 to 3 on ketoprofen-associated photohemolysis were evaluated as the hemolysis inhibition (%) with respect to the control group, calculated using Abs540.

[4] = Synergistic phototoxicity-reducing action of combinations (method not described)

COc1ccc(O)cc1C(C)(C)C [BHA, 2-tert-butyl-4-oxyanisole]
Auricular edema inhibition (%) ([1]; 0.5% BHA with 2% ketoprofen in ethanol): 24%

Cc1cc(C(C)(C)C)c(O)c(C(C)(C)C)c1 [BHT, 2,6-di-tert-butyl-p-cresol]
IL-1α production (IL-1α concentration in the culture supernatant) [2]: IL-1α production is inhibited
hemolysis inhibition at 0.125 µg/mL ([3]; BHT 0.125 μg/mL, propyl gallate 0): -3.7%
hemolysis inhibition at 0.25 µg/mL ([3]; BHT 0.25 μg/mL, propyl gallate 0): 9.6%
hemolysis inhibition at 0.5 µg/mL ([3]; BHT 0.5 μg/mL, propyl gallate 0): 49.6%
hemolysis inhibition at 1 µg/mL ([3]; BHT 1 μg/mL, propyl gallate 0): 88.9%
Auricular edema inhibition (%) ([1]; 1.0% BHT with 2% ketoprofen in ethanol): 16%

CCCOC(=O)c1cc(O)c(O)c(O)c1 [Propyl gallate, propyl gallate]
IL-1α production (IL-1α concentration in the culture supernatant) [2]: IL-1α production is inhibited
hemolysis inhibition at 0.5 µg/mL ([3]; Table 1: propyl gallate 0.5 μg/mL, BHA 0): 25.5%
hemolysis inhibition at 1 µg/mL ([3]; Table 1: propyl gallate 1 μg/mL, BHA 0): 66%
hemolysis inhibition at 2 µg/mL ([3]; Table 1: propyl gallate 2 μg/mL, BHA 0): 88.9%
hemolysis inhibition at 0.5 µg/mL ([3]; Table 2: propyl gallate 0.5 μg/mL, BHT 0): 3.6%
hemolysis inhibition at 1 µg/mL ([3]; Table 2: propyl gallate 1 μg/mL, BHT 0): 45.4%
hemolysis inhibition at 2 µg/mL ([3]; Table 2: propyl gallate 2 μg/mL, BHT 0): 91.2%
hemolysis inhibition at 0.5 µg/mL ([3]; Table 3: propyl gallate 0.5 μg/mL, thymol 0): 2.1%
hemolysis inhibition at 1 µg/mL ([3]; Table 3: propyl gallate 1 μg/mL, thymol 0): 63.8%
hemolysis inhibition at 2 µg/mL ([3]; Table 3: propyl gallate 2 μg/mL, thymol 0): 88%
Auricular edema inhibition (%) ([1]; Table 4: 0.2% PG with 2% ketoprofen in ethanol): 21%
Auricular edema inhibition (%) ([1]; Table 5: 0.2% PG with 2% ketoprofen in ethanol): 19%

Cc1ccc(C(C)C)c(O)c1 [Thymol, 6-isopropyl-m-cresol]
hemolysis inhibition at 0.5 µg/mL ([3]; thymol 0.5 μg/mL, propyl gallate 0): 10.8%
hemolysis inhibition at 1 µg/mL ([3]; thymol 1 μg/mL, propyl gallate 0): 41.1%
hemolysis inhibition at 2 µg/mL ([3]; thymol 2 μg/mL, propyl gallate 0): 70.7%

CCCCCCCCC(=O)NCc1ccc(O)c(OC)c1 [nonylic vanillylamide]
synergistic effect on the phototoxicity-reducing action [4]: No such synergistic effect is observed
